Measurements as given in patent US8895568B2, “Compositions comprising substituted pteridines as agrochemicals” (Dow AgroSciences LLC, priority 2009, dated 2014).
Where two headings read alike, the source gives them in different places.

Experiments:
Type in all cases: in vivo
[1] = test system: DROSME, AEDSAE, LAPHEG, or HELIVI; test: Insecticidal activity, active if any of DROSME, AEDSAE, LAPHEG or HELIVI was controlled at 80% or more; conditions: read-out: >80% mortality on any insect species @ 4000 ppm
[2] = test system: Pseudoperonospora cubensis; test: Cucumber Downy Mildew (PSPECU), foliar spray, percent disease control; conditions: read-out: PSPECU percent control
Protocol: The activity of the compounds as effective fungicides was determined by applying the compounds to plants and observing control of fungal disease. The compounds were formulated at 200 ppm in 10 vol. % acetone plus 90 vol. % Triton X water (deionized water 99.99 wt %+0.01 wt % Triton X100), giving a “formulated test compound.” In a few cases, compounds were formulated at 75 or 8.3 ppm rather than 200 ppm in 10 vol. % acetone plus 90 vol. % Triton X water (deionized water 99.99 wt. %+0.01 wt. % Triton X100), giving a “formulated test compound.” Formulated test compounds were applied to plants using a turn table sprayer fitted with two opposing air atomization nozzles which delivered approximately 1500 L/ha of spray volume. All plants were inoculated with spores of the fungus the day after treatment, then incubated in an environment conducive to disease development. Disease severity was evaluated 4 to 15 days later, depending on the disease and the speed of disease development. The following experiments were performed in the laboratory to determine the fungicidal efficacy of the compounds of the invention. Cucumber Downy Mildew (causal agent Pseudoperonospora cubensis; Bayer code […]): Cucumber plants (variety Bush Champion) were grown from seed in a soil-less peat-based potting mixture (Metromix) until the first true leaf was 20-80% expanded. Each pot contained 1 seedling. These plants were sprayed until wet with the formulated test compound. On the following day, the leaves were inoculated with an aqueous suspension of downy mildew sporangia and the plants were kept in high humidity for one day to permit sporangia to germinate and infect the leaf. The plants were then incubated in a growth chamber until disease developed on untreated control plants. […] The effectiveness of the test compounds at controlling disease when sprayed on leaves was determined by assessing the severity of disease on treated plants, then converting the severity to percent control based on the level of disease on untreated, inoculated plants. Data are the level (in percent) at which the given disease was controlled when the given compound was applied to the foliage of the plants at 200 ppm. In a few cases (noted in the table) the compound was applied to the plants at 75 ppm or 8.3 ppm.

Colletotricum lagenarium = test: Cucumber Anthracnose (COLLLA), foliar spray, percent disease control
Protocol: The activity of the compounds as effective fungicides was determined by applying the compounds to plants and observing control of fungal disease. The compounds were formulated at 200 ppm in 10 vol. % acetone plus 90 vol. % Triton X water (deionized water 99.99 wt %+0.01 wt % Triton X100), giving a “formulated test compound.” In a few cases, compounds were formulated at 75 or 8.3 ppm rather than 200 ppm in 10 vol. % acetone plus 90 vol. % Triton X water (deionized water 99.99 wt. %+0.01 wt. % Triton X100), giving a “formulated test compound.” Formulated test compounds were applied to plants using a turn table sprayer fitted with two opposing air atomization nozzles which delivered approximately 1500 L/ha of spray volume. All plants were inoculated with spores of the fungus the day after treatment, then incubated in an environment conducive to disease development. Disease severity was evaluated 4 to 15 days later, depending on the disease and the speed of disease development. The following experiments were performed in the laboratory to determine the fungicidal efficacy of the compounds of the invention. Cucumber Anthracnose (causal agent Colletotricum lagenarium; Bayer code COLLLA): Cucumber plants (variety Bush Champion) were grown from seed in a soil-less peat-based potting mixture (Metromix) until the first true leaf was 20-80% expanded. Each pot contained 1 seedling. These plants were sprayed until wet with the formulated test compound. On the following day, the leaves were inoculated with an aqueous spore suspension of Colletotricum lagenarium and the plants were kept in high humidity for one day to permit spores to germinate and infect the leaf. The plants were then transferred to a growth chamber until disease developed on untreated control plants. […] The effectiveness of the test compounds at controlling disease when sprayed on leaves was determined by assessing the severity of disease on treated plants, then converting the severity to percent control based on the level of disease on untreated, inoculated plants. Data are the level (in percent) at which the given disease was controlled when the given compound was applied to the foliage of the plants at 200 ppm. In a few cases (noted in the table) the compound was applied to the plants at 75 ppm or 8.3 ppm.

Cochliobolus sativus = test: Spot Blotch of Wheat (COCHSA), foliar spray, percent disease control; conditions: Bipolaris sorokiniana, read-out: COCHSA percent control

Row | Compound | pest or weed control at 4000 ppm [1] | pest or weed control at 200 µg/mL ([2]; foliar) | pest or weed control at 200 µg/mL (Colletotricum lagenarium; foliar) | pest or weed control at 200 µg/mL (Cochliobolus sativus; foliar) | pest or weed control at 200 µg/mL ([2]; foliar spray) | pest or weed control at 200 µg/mL (Colletotricum lagenarium; foliar spray) | pest or weed control at 200 µg/mL (Cochliobolus sativus; foliar spray)
1 | FC(F)(F)c1ccnc(Oc2ccc(CCNc3ncnc4nccnc34)cc2)c1 [Compound 2, pteridin-4-yl-{2-[4-(4-trifluoromethylpyridin-2-yloxy)-phenyl]-ethyl}-amine] | > 80% | 80 to 100% | 80 to 100% | 50 to 79% |  |  | 
2 | FC(F)(F)c1ccc(Oc2ccc(CCNc3ncnc4nccnc34)cc2)nc1 [Compound 5] | > 80% | 80 to 100% | 80 to 100% | 0 to 49% |  |  | 
3 | FC(F)(F)c1cccc(Oc2ccc(CCNc3ncnc4nccnc34)cc2)n1 [Compound 6] | > 80% | 80 to 100% | 0 to 49% | 0 to 49% |  |  | 
4 | Fc1cccc(Oc2ccc(CCNc3ncnc4nccnc34)cc2)n1 [Compound 7, {2-[4-(6-Fluoropyridin-2-yloxy)-phenyl]-ethyl}-pteridin-4-ylamine] | > 80% | 80 to 100% | 0 to 49% | 0 to 49% |  |  | 
5 | N#Cc1ccnc(Oc2ccc(CCNc3ncnc4nccnc34)cc2)c1 [Compound 8] | > 80% | 80 to 100% | 80 to 100% | 0 to 49% |  |  | 
6 | COc1cccc(Oc2ccc(CCNc3ncnc4nccnc34)cc2)n1 [Compound 10, {2-[4-(6-Methoxypyridin-2-yloxy)-phenyl]-ethyl}-pteridin-4-yl-amine] | > 80% | 80 to 100% | 0 to 49% | 0 to 49% |  |  | 
7 | COc1cc(C(F)(F)F)cc(Oc2ccc(CCNc3ncnc4nccnc34)cc2OC)n1 [Compound 178] |  | 0 to 49% | 0 to 49% | 0 to 49% |  |  | 
8 | COc1cc(C(F)(F)F)cc(Oc2cc(C)c(CCNc3ncnc4nccnc34)cc2C)n1 [Compound 179] |  | 0 to 49% | 0 to 49% | 0 to 49% |  |  | 
9 | CC(C)Oc1cc(CCNc2ncnc3nccnc23)ccc1Oc1cc(C(F)(F)F)ccn1 [Compound 180, {2-[3-(Isopropoxy)-4-(4-trifluoromethyl-pyridin-2-yloxy)-phenyl]-ethyl}-pteridin-4-ylamine] |  | 80 to 100% | 50 to 79% | 0 to 49% |  |  | 
10 | COc1cc(CCNc2ncnc3nccnc23)cc(OC)c1O [Compound 181] |  | 0 to 49% | 0 to 49% | 0 to 49% |  |  | 
11 | CC(C)(C)COC(=O)c1ccnc(Oc2ccc(CCNc3ncnc4nccnc34)cc2)c1 [Compound 182] |  | 80 to 100% | 0 to 49% | 0 to 49% |  |  | 
12 | CCOC(=O)c1ccnc(Oc2ccc(CCNc3ncnc4nccnc34)cc2)c1 [Compound 183] |  | 80 to 100% | 0 to 49% | 0 to 49% |  |  | 
13 | CC(F)(F)c1cc[n+]([O-])c(Oc2ccc(CCNc3ncnc4nccnc34)cc2)c1 [Compound 184, (2-{4-[4-(1,1-difluoroethyl)-1-oxy-pyridin-2-yloxy]-phenyl}-ethyl)-pteridin-4-yl-amine] |  | 80 to 100% | 50 to 79% | 0 to 49% |  |  | 
14 | COc1cc(C(F)(F)F)cc(Oc2ccc(CCNc3ncnc4nccnc34)cc2F)n1 [Compound 185] |  | 80 to 100% | 0 to 49% | 0 to 49% |  |  | 
15 | COc1cc(CCNc2ncnc3nccnc23)cc(OC)c1Oc1cc(C(F)(F)F)ccn1 [Compound 186] |  | 80 to 100% | 0 to 49% | 0 to 49% |  |  | 
16 | CCOc1cc(CCNc2ncnc3nccnc23)ccc1Oc1cc(C(C)(F)F)ccn1 [Compound 189] |  | 80 to 100% | 50 to 79% | 0 to 49% |  |  | 
17 | COc1cc(C(C)(F)F)cc(Oc2ccc(CCNc3ncnc4nccnc34)cc2)n1 [Compound 191, (2-{4-[4-(1,1-Difluoroethyl)-6-methoxypyridin-2-yloxy]-phenyl}-ethyl)-pteridin-4-yl-amine] |  | 80 to 100% | 50 to 79% | 0 to 49% |  |  | 
18 | CC(F)(F)c1ccnc(Oc2ccc(CCNc3ncnc4nccnc34)cc2F)c1 [Compound 193] |  | 80 to 100% | 0 to 49% | 0 to 49% |  |  | 
19 | CC(C)Oc1cc(CCNc2ncnc3nccnc23)ccc1Oc1cc(C(C)(F)F)ccn1 [Compound 195] |  | 80 to 100% | 50 to 79% | 0 to 49% |  |  | 
20 | CC(=O)Oc1cc(CCNc2ncnc3nccnc23)ccc1Oc1cc(C(C)(F)F)ccn1 [Compound 196] |  | 80 to 100% | 0 to 49% | 0 to 49% |  |  | 
21 | CC(F)(F)c1ccnc(Oc2ccc(CCNc3ncnc4nccnc34)cc2O)c1 [Compound 197, 2-[4-(1,1-Difluoroethyl)-pyridin-2-yloxy]-5-[2-(pteridin-4-ylamino)-ethyl]-phenol] |  | 80 to 100% | 0 to 49% | 0 to 49% |  |  | 
22 | Cc1cc(Oc2cc(C(F)(F)F)ccn2)ccc1OCCNc1ncnc2nccnc12 [Compound 201] |  |  |  |  | 80 to 100% | 0 to 49% | 0 to 49%
23 | CCOc1cc(CCNc2ncnc3nccnc23)ccc1Oc1cc(C(C)C)ccn1 [Compound 205] |  |  |  |  | 80 to 100% | 0 to 49% | 0 to 49%
24 | CC(C)(C)c1ccnc(Oc2ccc(CCNc3ncnc4nccnc34)cc2)c1 [Compound 207, {2-[4-(4-tert-Butylpyridin-2-yloxy)-phenyl]-ethyl}-pteridin-4-ylamine] |  |  |  |  | 80 to 100% | 0 to 49% | 0 to 49%
25 | COc1ccc(CCNc2nc(C)nc3nc(C)c(C)nc23)cc1 [Compound 208, [2-(4-Methoxyphenyl)-ethyl]-(2,6,7-trimethylpteridin-4-yl)-amine] |  |  |  |  | 50 to 79% | 0 to 49% | 0 to 49%
26 | Cc1nc(NCCc2ccc(O)cc2)c2nc(C)c(C)nc2n1 [Compound 209] |  |  |  |  | 0 to 49% | 0 to 49% | 0 to 49%
27 | COc1ccc(CCNc2ncnc3nccnc23)cc1Br [Compound 210] |  |  |  |  | 80 to 100% | 0 to 49% | 0 to 49%
28 | Oc1ccc(CCNc2ncnc3nccnc23)cc1Br [Compound 211] |  |  |  |  | 0 to 49% | 0 to 49% | 0 to 49%
29 | CC(C)(C)OC(=O)N(CCc1ccc(O)cc1)c1ncnc2nccnc12 [Compound 217, [2-(4-Hydroxyphenyl)-ethyl]-pteridin-4-yl-carbamic acid tert-butyl Ester] |  |  |  |  | 50 to 79% | 0 to 49% | 50 to 79%
